# Patent US20240368139A1, “NOVEL MODULATORS OF EHMT1 AND EHMT2 AND THERAPEUTIC USE THEREOF” (Tango Therapeutics, Inc., priority 2021, published 2024)
# Key:
# human EHMT1 982-1266 = target: T1, human EHMT1 982-1266 (Homo sapiens, UniProt Q9H9B1); assay: EHMT1 enzyme assay on histone peptide substrate (3H-SAM SPA); conditions: EHMT1 IC50, recombinant human EHMT1 982-1266, histone peptide substrate
# T1 sequence (Q9H9B1 982-1266): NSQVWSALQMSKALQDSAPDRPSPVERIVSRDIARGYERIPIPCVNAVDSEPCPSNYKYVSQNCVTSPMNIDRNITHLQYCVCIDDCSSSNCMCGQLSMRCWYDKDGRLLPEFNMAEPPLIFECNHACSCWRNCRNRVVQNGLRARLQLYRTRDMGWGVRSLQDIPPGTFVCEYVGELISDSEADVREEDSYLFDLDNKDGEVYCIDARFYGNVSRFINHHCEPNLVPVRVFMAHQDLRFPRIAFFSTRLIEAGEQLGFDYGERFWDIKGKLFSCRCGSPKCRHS
# human EHMT2 913-1193 = target: T2, human EHMT2 913-1193 (Homo sapiens, UniProt Q96KQ7); assay: EHMT2 enzyme assay on histone peptide substrate (3H-SAM SPA); conditions: EHMT2 IC50, recombinant human EHMT2 913-1193, histone peptide substrate
# T2 sequence (Q96KQ7 913-1193): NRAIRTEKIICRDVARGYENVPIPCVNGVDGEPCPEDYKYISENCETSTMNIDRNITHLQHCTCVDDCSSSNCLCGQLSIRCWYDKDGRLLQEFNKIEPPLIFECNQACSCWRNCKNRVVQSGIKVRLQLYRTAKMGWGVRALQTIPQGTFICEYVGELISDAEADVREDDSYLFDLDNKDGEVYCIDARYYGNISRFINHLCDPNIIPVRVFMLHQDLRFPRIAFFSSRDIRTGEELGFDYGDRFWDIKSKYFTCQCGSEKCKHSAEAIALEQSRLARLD
# H3K9me2 in HCT116 cells = assay: HCT116 H3K9me2 in-cell western assay; format: cell-based; conditions: Homo sapiens, HCT-116, 72 h, HCT116 cells, 72 hours incubation; read-out: H3K9me2 ICW IC50
# Source text: HCT116 cell line was purchased from ATCC (Manassas, VA, USA). […] Penicillin-Streptomycin and heat inactivated fetal bovine serum were purchased from Hyclone (Logan, UT, USA). DPBS, Corning^R were purchased from VWR (Radnor, PA, USA). Triton′ X-100 was purchased from Sigma (St. Louis, MO, USA). Intercept blocking buffer, DRAQ5, Licor Odyssey Infrared Scanner were purchased from Licor Biosciences (Lincoln, NB, USA). Plate washer was purchased from BioTek (Winooski, VT, USA). […] 16% Paraformaldehyde was purchased from Electron Microscopy Sciences (Hatfield, PA, USA). HCT116 cells were maintained in complete growth medium (RPMI supplemented with 10% heat inactivated fetal bovine serum, 1% Penicillin-Streptomycin) and cultured at 37° C. under 5% CO2. N^2-(4-methoxy-3-(3-(pyrrolidin-1-yl)propoxy)phenyl)-N^4,6-dimethyl]pyrimidine-2,4-diamine (synthesis disclosed in International Application WO2017181177A1) was used as a control compound.
# HCT116 cells (ATCC) were trypsinized, counted and seeded in assay medium (RPMI supplemented with 10% heat inactivated fetal bovine serum, 1% Penicillin-Streptomycin) at a concentration of 2,000 cells per well to a 384-well cell culture plate with compounds in 50 μl per well. Plates were incubated with at 37° C. under 5% CO2 for 72 hours. After the incubation, 50 μl per well of 8% paraformaldehyde in PBS was added to the plates and incubated at room temperature for 20 minutes. Plates were transferred to a BioTek (EL406) plate washer and washed 5 times with 110 μl per well of wash buffer (1×PBS containing 0.1% Triton X-100). The plates were next blocked with 50 μl of Intercept blocking buffer for 1 hour at room temperature. Blocking buffer was removed and 30 μl per well of monoclonal primary antibody of H3K9me2 (CST) diluted 1:200 in Intercept blocking buffer were added and plates were incubated overnight at 4° C. The plates were then washed 5 times with 110 μl per well of wash buffer (1×PBS containing 0.1% Triton X-100). Next 30 μl per well of secondary was added (1:400 800 CW goat anti-rabbit IgG in blocking buffer) with 1:1000 DRAQ5 in blocking buffer and incubated for 2 hours at room temperature. The plates were washed 5 times with 110 μl per well of wash buffer (1×PBS containing 0.1% Triton X-100) then with 100 μl per well of water once. Plates were allowed to dry at room temperature then imaged on a Licor Odyssey Infrared Scanner which measured integrated intensity at 700 nm and 800 nm wavelength. Both 700 and 800 channels were scanned.
# The average of the ratio values (800 nm/700 nm) for each well was calculated and used to determine the percentage for each test well in the plate. Compounds were serially diluted two-fold in 0.1% DMSO for a total of 10 test concentrations beginning at 10 μM. IC50 curves were generated using duplicate wells per concentration of compound. […] IC50 values were calculated using a non-linear regression of Prism.
Structure (SMILES),IC50 (human EHMT1 982-1266),IC50 (human EHMT2 913-1193),IC50 (H3K9me2 in HCT116 cells)
"CNc1cc(C)nc(Nc2cc3c(c(C4=C[C@H]5CNC[C@H]5C4)c2)OCC3)n1 (racemic) [Compound 133, N2-[7-(1,2,3,3a,6,6a-hexahydrocyclopenta [c]pyrrol-5-yl)-2,3-dihydrobenzofuran-5-yl]-N4,6-dimethyl-pyrimidine-2,4-diamine]",100 to 500 nM,500 to 2000 nM,500 to 2000 nM
"CNc1cc(C)nc(Nc2cc3c(c(C4=C[C@H]5CNC[C@H]5C4)c2)OC(F)(F)O3)n1 (racemic) [Compound 143, N2-[7-(1,2,3,3a,6,6a-hexahydrocyclopenta[c]pyrrol-5-yl)-2,2-difluoro-1,3-benzodioxol-5-yl]-N4,6-dimethyl-pyrimidine-2,4-diamine]",100 to 500 nM,> 2000 nM,> 2000 nM
"CNc1cc(C)nc(Nc2cc3c(c(C4=C[C@@H]5CNC[C@@H]5C4)c2F)OCC3)n1 (racemic) [Compound 359, N2-[7-(1,2,3,3a,6,6a-hexahydrocyclopenta[c]pyrrol-5-yl)-6-fluoro-2,3-dihydrobenzofuran-5-yl]-N4,6-dimethyl-pyrimidine-2,4-diamine]",< 100 nM,100 to 500 nM,100 to 500 nM
"CNc1cc(C)nc(Nc2cc3c(c(C4=CCN(C)CC(O)C4)c2F)OCC3)n1 (single isomer, unassigned) [Compound 352]",< 100 nM,< 100 nM,< 100 nM
"CNc1cc(C)nc(Nc2cc3c(c(C4=CCNCC(O)C4)c2C)OCCC3)n1 (single isomer, unassigned) [Compound 355]",< 100 nM,< 100 nM,< 100 nM
"CNc1cc(C)nc(Nc2cc3c(c(C4=CCNCC(O)C4)c2C)OCC3)n1 (single isomer, unassigned) [Compound 358]",100 to 500 nM,100 to 500 nM,100 to 500 nM
"CNc1cc(C)nc(Nc2cc3c(c(C4=CCN(C)CC(O)C4)c2C)OCC3)n1 (single isomer, unassigned) [Compound 375]",100 to 500 nM,500 to 2000 nM,100 to 500 nM
"CNc1cc(C)nc(Nc2cc3c(c(C4=CCNCC(O)C4)c2Cl)OCC3)n1 (single isomer, unassigned) [Compound 376]",< 100 nM,100 to 500 nM,< 100 nM
"CNc1cc(C)nc(Nc2cc3c(c(C4=CCNC(C)CC4)c2C)OCC3)n1 (single isomer, unassigned) [Compound 383]",< 100 nM,< 100 nM,< 100 nM
"CNc1cc(C)nc(Nc2cc3c(c(C4=CCNCC(O)C4)c2F)OCO3)n1 (single isomer, unassigned) [Compound 428]",< 100 nM,< 100 nM,< 100 nM
"CNc1cc(C)nc(Nc2cc3c(c(C4=CCC(N)CC4)c2F)OCC3)n1 (single isomer, unassigned) [Compound 435]",< 100 nM,100 to 500 nM,< 100 nM
"CNc1cc(C)nc(Nc2cc3c(c(C4=CCNC[C@H](O)C4)c2F)OC[C@H]3C)n1 (stereo in doubt) [Compound 398, rel-(3R)-5-[rel-(3S)-6-fluoro-3-methyl-5-[[4-methyl-6-(methylamino)pyrimidin-2-yl]amino]-2,3-dihydrobenzofuran-7-yl]-2,3,4,7-tetrahydro-1H-azepin-3-ol]",< 100 nM,100 to 500 nM,< 100 nM
"CNc1cc(C)nc(Nc2cc3c(c(C4=CCNC[C@H](O)C4)c2F)OC[C@@H]3C)n1 (stereo in doubt) [Compound 401, rel-(3R)-5-[rel-(3R)-6-fluoro-3-methyl-5-[[4-methyl-6-(methylamino)pyrimidin-2-yl]amino]-2,3-dihydrobenzofuran-7-yl]-2,3,4,7-tetrahydro-1H-azepin-3-ol]",< 100 nM,100 to 500 nM,< 100 nM
"CNc1cc(C)nc(Nc2cc3c(c(C4=CCNC[C@@H](O)C4)c2F)OC[C@H]3C)n1 (stereo in doubt) [Compound 420, rel-(3S)-5-[rel-(3S)-6-fluoro-3-methyl-5-[[4-methyl-6-(methylamino)pyrimidin-2-yl]amino]-2,3-dihydrobenzofuran-7-yl]-2,3,4,7-tetrahydro-1H-azepin-3-ol]",< 100 nM,< 100 nM,< 100 nM
"CNc1cc(C)nc(Nc2cc3c(c(C4=CCNC[C@@H](O)C4)c2F)OC[C@@H]3C)n1 (stereo in doubt) [Compound 422, rel-(3S)-5-[rel-(3R)-6-fluoro-3-methyl-5-[[4-methyl-6-(methylamino)pyrimidin-2-yl]amino]-2,3-dihydrobenzofuran-7-yl]-2,3,4,7-tetrahydro-1H-azepin-3-ol]",< 100 nM,< 100 nM,< 100 nM
"CNc1cc(C)nc(Nc2cc(OCCCN3CCCC3)c3occc3c2)n1 [Compound 102, N4,6-dimethyl-N2-[7-(3-pyrrolidin-1-ylpropoxy)benzofuran-5-yl]pyrimidine-2,4-diamine]",100 to 500 nM,500 to 2000 nM,500 to 2000 nM
"CNc1cc(C2CCCCC2)nc(Nc2cc3c(c(OCCCN4CCCC4)c2)OCC3)n1 [Compound 104, 6-cyclohexyl-N4-methyl-N2-[7-(3-pyrrolidin-1-ylpropoxy)-2,3-dihydrobenzofuran-5-yl]pyrimidine-2,4-diamine]",> 2000 nM,> 2000 nM,> 2000 nM
"CNc1cc(C)nc(Nc2cc3c(c(C4CCCNCC4)c2)OCC3)n1 (stereo not shown) [Compound 106, N2-[7-(azepan-4-yl)-2,3-dihydrobenzofuran-5-yl]-N4,6-dimethyl-pyrimidine-2,4-diamine]",500 to 2000 nM,500 to 2000 nM,100 to 500 nM
"CNc1cc(C)nc(Nc2cc3c(c(C4CCCN(C)CC4)c2)OCC3)n1 (stereo not shown) [Compound 107, N4,6-dimethyl-N2-[7-(1-methylazepan-4-yl)-2,3-dihydrobenzofuran-5-yl]pyrimidine-2,4-diamine]",100 to 500 nM,500 to 2000 nM,100 to 500 nM
"CNc1nc(Nc2cc3c(c(OCCCN4CCCC4)c2)OCC3)nc(C)c1F [Compound 108, 5-fluoro-N4,6-dimethyl-N2-[7-(3-pyrrolidin-1-ylpropoxy)-2,3-dihydrobenzofuran-5-yl]pyrimidine-2,4-diamine]",> 2000 nM,> 2000 nM,> 2000 nM
Cc1cc(N(C)C)nc(Nc2cc3c(c(C4=CCN(C)CCC4)c2)OCC3)n1 [Compound 139],–,–,500 to 2000 nM
CNc1cc(C)nc(Nc2cc3c(c(C4=CCNC(C)CC4)c2F)OCC3)n1 (stereo not shown) [Compound 202],–,–,< 100 nM
[2H]Cc1cc(NC([2H])([2H])[2H])nc(Nc2cc3c(c(C4=CCNCCC4)c2F)OCC3)n1 [Compound 249],–,–,< 100 nM
[2H]C([2H])([2H])Nc1cc(C)nc(Nc2cc3c(c(C4=CCNCCC4)c2F)OCC3)n1 [Compound 253],–,–,< 100 nM
